Biological target: Neuronal acetylcholine receptor subunit alpha-7 (Homo sapiens, UniProt P36544)
Assay: Ca2+ Fluorometry
Description: α7 cells stably expressing human α7 nAchR were cultured in the medium detailed above, and were split twice a week. For the fluorometric measurements of cytosolic Ca2+ ion concentration ([Ca2+]i) cells were seeded in 96-well microplates at a density of 60000 cells/well and maintained overnight in a tissue culture incubator at 37° C. under an atmosphere of 95% air/5% CO2. The plating medium was identical with the culture medium. 50 μl of the growth medium was aspirated with a cell washer (BioTek Elx405UCVWS). Then 50 μl/well Calcium 5 kit diluted 2-fold in assay buffer was added manually using an 8-channel pipette. […] Baseline and agonist-evoked [Ca2+]i-changes were monitored with FlexStation II (Molecular Devices, Sunnyvale, Calif.), a plate reader fluorometer with integrated 8-channel fluid addition capability. Fluorescence measurements were carried out at 37° C. […] Baseline was recorded for 20 seconds followed by agonist stimulation. 50 μl 4× concentrated agonist solution was added to the cells using the pipettor of FlexStation II and fluorescence was monitored for an additional 40 seconds. […] In all experiments, all treatments were measured in multiple wells in parallel, and the mean ΔF/F values were used for analysis.

Sequence of Neuronal acetylcholine receptor subunit alpha-7 (P36544 whole entry): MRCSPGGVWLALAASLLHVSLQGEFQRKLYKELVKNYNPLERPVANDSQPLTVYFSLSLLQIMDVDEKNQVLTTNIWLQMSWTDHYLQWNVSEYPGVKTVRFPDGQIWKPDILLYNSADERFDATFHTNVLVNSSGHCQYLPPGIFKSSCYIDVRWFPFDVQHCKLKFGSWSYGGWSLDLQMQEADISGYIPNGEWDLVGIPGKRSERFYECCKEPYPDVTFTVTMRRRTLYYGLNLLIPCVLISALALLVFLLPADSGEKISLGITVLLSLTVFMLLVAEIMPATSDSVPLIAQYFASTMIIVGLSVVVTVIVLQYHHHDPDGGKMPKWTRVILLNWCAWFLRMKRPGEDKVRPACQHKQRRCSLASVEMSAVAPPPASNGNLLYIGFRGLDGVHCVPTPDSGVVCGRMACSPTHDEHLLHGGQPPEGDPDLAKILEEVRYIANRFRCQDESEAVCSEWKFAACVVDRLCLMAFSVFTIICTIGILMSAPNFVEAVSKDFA

With `CCN1C(C(=O)Nc2cccc(C(F)(F)F)n2)=CC([C@H]2CC[C@H](C(F)(F)F)CC2)=NS1(=O)=O` [US12194050, Example 53] the EC50 was 90 nM.
